# Tests used:
# rPASMC = assay: EdU cell proliferation assay, rPASMC; format: cell-based; conditions: Rattus norvegicus, 5% FBS, N = 6, FIG. 1g, read-out: rPASMC IC50 (nM), inhibition of proliferation
# Description: (§1) Alternatively, rather than using BrdU, EdU (5-ethynyl-2′-deoxyuridine) can be used. Cells were first pre-incubated with different concentrations of the CDK inhibitor for 30 minutes, and then 5% FBS was added to stimulate cell proliferation. Cells were maintained for 24 h before the proliferation rate was evaluated using EDU Click-iT EdU Alexa Fluor® 647 HCS Assay (Thermofisher Scientific, USA). EdU was added to the medium 16 h before the quantification of EdU incorporation. Proliferation was quantified by scanning the 96-well plates using automated high content imaging platform equipped with appropriate fluorescence microscopic filters for DAPI (4′,6-Diamidino-2-Phenylindole) or Hoechst stain and Cyanine5 dyes as part of the Click-iT assay. Proliferating EdU positive cells detected at Cyanine5 were quantified and normalized to total cell number per well where the total cell number per cell was identified by DAPI or Hoechst signal. The % effect was then calculated:
# (§2) The average (avg) amount (amt) of proliferating cells per concentration of CDK inhibitor with FBS present.
# (§3) The minimum amount of proliferation (min amt of prolif'n) is based on cell numbers in the wells where FBS is not added and no CDK inhibitor is present.
# (§4) The maximum amount of proliferation (max amt of prolif'n) is based on cell numbers in the wells where FBS is added and no CDK inhibitor is present.
# hPASMC = assay: EdU cell proliferation assay, hPASMC; format: cell-based; conditions: Homo sapiens, 5% FBS, N = 6, FIG. 1e, read-out: hPASMC IC50 (nM), inhibition of proliferation
# Description: as §1, §2, §3, §4
# hPAAF = assay: EdU cell proliferation assay, hPAAF; format: cell-based; conditions: Homo sapiens, 5% FBS, N = 6, FIG. 1f, read-out: hPAAF IC50 (nM), inhibition of proliferation
# Description: as §1, §2, §3, §4
# phospho-Rb (Ser807/811) = assay: In-cell western analysis of Rb phosphorylation in human PASMCs; format: cell-based; conditions: Homo sapiens, PASMC; 10% FBS; N = 6; FIG. 2c; read-out: Average IC50 (nM), inhibition of phosphorylation of Rb in hPASMCs
# Description: In-cell western analysis. Primary PASMCs from normal human subjects were cultured and serum-starved as described above. Cells were first pre-incubated with different concentrations of palbociclib for 60 minutes, and then either 5% FBS or 10% FBS or 30 ng/ml PDGF-BB was added to stimulate cell proliferation and Rb phosphorylation. The effect of Palbociclib on Rb phosphorylation was evaluated 24 h later, using in-cell western assay according to the manufacturer's instructions (Li-Cor Biosciences, Lincoln, Nebr., USA). Phosphorylated Rb was measured using a rabbit monoclonal antibody anti-phospho-Rb (Ser807/811) (Cell Signaling Technology, Inc., Danvers, Mass., USA), followed by detection with IRDye 800CW infrared fluorescent dye-labeled goat anti-rabbit secondary antibody. Actin levels were measured using mouse anti-actin monoclonal antibodies (pan Ab-5) (Fisher Scientific Pittsburgh, Pa., USA; Sigma Aldrich, St. Louis, Mo., USA), and followed by detection with IRDye 680RD-labeled goat anti-mouse secondary antibody. See FIG. 2a where 5% FBS was used, FIG. 2b where PDGF-BB was used, and FIG. 2c where 10% FBS was used.
# [1] = tested on: Rat MCT-induced PAH Model; assay: Rat MCT-induced PAH model (hemodynamics, histomorphometry, IHC); format: in vivo
# Description: Rat MCT-induced PAH Model: Male Sprague-Dawley rats (Charles River Laboratories) (260-280 g; vehicle control group, n=6; all other groups, n=15) received MCT (50 mg/kg, SC; 1 ml/kg BVV) dissolved in vehicle (33.3% 1 N HCl, 14.8% 1 N NaOH, 52.2% diH2O) or vehicle alone on day 0. Sildenafil (50 mg/kg/dose; BID) was administered (5 ml/kg, PO) either prophylactically from days 0-28 or therapeutically from days 14-28. Palbociclib (100 mg/kg; QD) was administered therapeutically (days 14-28). Both sildenafil and palbociclib were resuspended in vehicle (0.5% methylcellulose) and administered orally (5 ml/kg). On day 28, animals were anesthetized via isoflurane, hemodynamic parameters were evaluated, and tissues harvested after euthanasia.
# Hemodynamic measurements—monocrotaline (MCT) study: On day 28, animals were anesthetized via 2% isofluorane in positive pressure ventilator. Pulmonary hemodynamics were measured using a pre-calibrated pressure transducer in isoflurane positive-pressure ventilated animals. Steady-state pulmonary and systemic arterial pressures were measured using a Millar Solid State Mikro-tip catheter (Millar Instruments, Houston, Tex.) introduced to the pulmonary arterial trunk at the level of the aortic arch via the right carodid artery. Hemodynamic values were automatically calculated by the physiological data acquisition system, ADI Chart (ADI Instruments, Colorado Springs, Colo.) (Plato BioPharma).
# (§5) Measurement of RV hypertrophy. After collection of the heart at necropsy, the atria and great vessels were removed. The RV was separated from the LV and S. The wet weights of the RV and LV+S were measured to calculate the Fulton Index.
# (§6) Tissue preparation. Under anesthesia, the animals were exsanguinated, and the pulmonary circulation flushed with oxygenated (animals from Example 3 [MCT]) or heparizined (animals from Example 4 [Su5416/Hx]) saline. Trachea, lungs, and heart were removed intact from thoracic cavity and placed in ice-cold saline. Right lung lobes were removed, weighed, and immediately flash frozen in liquid nitrogen. A 10 mL syringe filled with fixative (10% NBF) with attached blunt tip needle (20 g) was used to inflate the left lung lobe and the airway was tied off to keep it consistently expanded. The left lung was then immersion fixed in 10% NBF for 48 hrs and then transferred to 70% EtOH for ≤5 days.
# (§7) Histomorphometric analysis. Three, 3-5 μm thick, transverse sections of the left lung lobe were used for histomorphometric analysis. Overall disease severity scores were determined by light microscopic evaluation of hematoxylin and eosin (H&E)-stained lung sections by a board-certified veterinary pathologist. Scores ranged from 0 (absent), 1 (minimal), 2 (mild), 3 (moderate), 4 (marked) to 5 (severe) and were assigned according to the approximate percentage of the tissue affected by the tissue changes (inflammatory, degenerative, vascular and/or proliferative) characteristic of the PAH model. Average vessel wall thickness was evaluated using lung sections prepared with a modified Verhoeff-van Gieson elastin stain. Image analysis was performed using random field sampling (Visiopharm newCAST) of 10% of tissue area with observer-assisted identification of intra-acinar and pre-acinar vessels and application of a nucleator probe to measure vessel wall thickness. Fully muscularized intra-acinar vessel density was evaluated in a similar manner using dual αSMA/Ki67 IHC-stained sections and observer-assisted counting of ≥70% muscularized (i.e. SMA^+), transversely sectioned, ≤50 μm external diameter, intra-acinar vessels with an identifiable lumen. Vessel-associated Ki67^+ and pRb^+ cells were counted in αSMA/Ki67 IHC-and CD31/pRb IHC-stained lung sections, respectively, using random field sampling of 10% of tissue area and observer-assisted identification of Ki67^+ or pRb^+ cells associated with the walls (i.e. in the intima or media) of vessels 100 μm external diameter.
# Immunohistochemistry. […]
# rat Su5416/Hx PAH model = assay: Rat SuHx (Su5416/hypoxia)-induced PAH model (hemodynamics, histomorphometry, IHC); format: in vivo; conditions: for lung weight vs vehicle/Su5416/Hx group / vessel-associated Ki67+ cells in the pulmonary vasculature (IHC) / vessel-associated pRb+ cells in the pulmonary vasculature (IHC): days 7 to 28; for MPAP: days 7 to 28, FIG. 4b; for Fulton Index: days 7 to 28, FIG. 4c; for muscularized intra-acinar vessel density relative to vehicle/Su5416/Hx group: days 7 to 28, FIG. 4e; for DPAP: days 7 to 28, FIG. 4i; for heart weight vs vehicle/Su5416/Hx group: days 7 to 28, FIG. 4j; for average vessel wall thickness, intra-acinar and pre-acinar vessels: days 7 to 28, FIG. 4d
# Description: SuHx-induced Pulmonary Arterial Hypertension: Sprague-Dawley rats were obtained from Charles River Laboratories (200-300 g; vehicle control, n=5; all other groups, n=10). Rats received Semaxinib dissolved in DMSO on day 0, followed by housing in low (13%) oxygen until day 28. Sildenafil (30 mg/kg/dose; BID), Riociguat (10 mg/kg, QD) or Palbociclib (100 mg/kg; QD) was administered in vehicle (0.5% methylcellulose) from days 7-28. Terminal hemodynamic evaluations and necropsy were conducted on day 28 in a manner similar to the MCT study.
# Hemodynamic measurements Su/Hx study: On day 28, animals were anesthetized via intramuscular injection of ketamine/xylazine (80/10 mg/kg). A Millar catheter was inserted into the pulmonary artery and pulmonary pressure and hemodynamics were measured as described by Stringer et al., (1981) Catheterization of the pulmonary artery in the closed-chest rat. J. Appl. Physiol. 51, 1047-1050. Hemodynamic values were calculated using the NOTOCORD-Hem software (NOTOCORD, Inc., Croissy sur Sienne, France) (CorDynamics).
# as §5, §6, §7
# Immunohistochemistry. Dual α-SMA/Ki67 nuclear antigen: All IHC steps were performed on 3 μm-thick, formalin-fixed, paraffin-embedded (FFPE) sections on Leica Bond Rx automated immunohistochemistry stainer. The instrument was programmed to bake and dewax the slides. […]
# [2] = day 0-28, score scale 0-5, FIG. 3g
IC50 (phospho-Rb (Ser807/811)),SMILES,IC50 (rPASMC),IC50 (hPASMC),IC50 (hPAAF),lung weight vs vehicle/Su5416/Hx group (rat Su5416/Hx PAH model),vessel-associated Ki67+ cells in the pulmonary vasculature (IHC) (rat Su5416/Hx PAH model),vessel-associated pRb+ cells in the pulmonary vasculature (IHC) (rat Su5416/Hx PAH model),MPAP (rat Su5416/Hx PAH model),Fulton Index (rat Su5416/Hx PAH model),muscularized intra-acinar vessel density relative to vehicle/Su5416/Hx group (rat Su5416/Hx PAH model),DPAP (rat Su5416/Hx PAH model),heart weight vs vehicle/Su5416/Hx group (rat Su5416/Hx PAH model),"average vessel wall thickness, intra-acinar and pre-acinar vessels (rat Su5416/Hx PAH model)",further results
262 nM,"CCN1CCN(Cc2ccc(Nc3ncc(F)c(-c4cc(F)c5nc(C)n(C(C)C)c5c4)n3)nc2)CC1 [Abemaciclib, 2-pyrimidinamine, N-(5-((4-ethyl-1-piperazinyl)methyl)-2-pyridinyl)-5-fluoro-4-(4-fluoro-2-methyl-1-(1-methylethyl)-1H-benzimidazol-6-yl)]",13 nM,6.5 nM,1.2 nM,–,–,–,–,–,–,–,–,–,–
352 nM,"CN(C)C(=O)c1cc2cnc(Nc3ccc(N4CCNCC4)cn3)nc2n1C1CCCC1 [Ribociclib, 7-cyclopentyl-N, N-dimethyl-2-((5-(piperazin-1-yl)pyridin-2-yl)amino)-7H-pyrrolo[2,3-d]pyrimidine-6-carboxamide]",28.6 nM,0.5 nM,0.8 nM,–,–,–,–,–,–,–,–,–,–
–,CCCc1nn(C)c2c(=O)[nH]c(-c3cc(S(=O)(=O)N4CCN(C)CC4)ccc3OCC)nc12 [Sildenafil],–,–,–,no change,no significant beneficial effect,no significant beneficial effect,significantly reduced,only a slight reduction,not statistically significantly different,significantly reduced,no change,not,"density of fully muscularized intra-acinar vessels (αSMA staining) ([1]; day 0-28, FIG. 3e): effective; average vessel wall thickness relative to vehicle/MCT group ([1]; day 0-28, FIG. 3d): 0.76 x MCT; disease severity scores, mean [1, 2]: 2.5; disease severity scores, range [1, 2]: 1-4; average vessel wall thickness (elastin staining), intra-acinar and pre-acinar pulmonary arteries, relative to vehicle/MCT group ([1]; day 14-28, FIG. 3d): little effect; PAH-related increase in MPAP ([1]; dosed prophylactically day 0-28, sildenafil 50 mg/kg/dose PO BID, FIG. 3b): significantly reduced; PAH-related increase in Fulton Index ([1]; prophylactic day 0-28, FIG. 3c): significantly reduced; PAH-related increase in DPAP ([1]; prophylactic day 0-28, FIG. 3i): significantly reduced; PAH-related increase in heart weight ([1]; prophylactic day 0-28, FIG. 3j): significantly reduced; PAH-related increase in SPAP ([1]; prophylactic day 0-28, FIG. 3h): significantly reduced; DPAP ([1]; therapeutic day 14-28): small and non-significant reduction; Fulton Index ([1]; therapeutic day 14-28): small and non-significant reduction; MPAP ([1]; therapeutic day 14-28): small and non-significant reduction; SPAP ([1]; therapeutic day 14-28): small and non-significant reduction; heart weight ([1]; therapeutic day 14-28): small and non-significant reduction; SPAP (rat Su5416/Hx PAH model; days 7 to 28, FIG. 4h): significantly reduced"
–,COC(=O)N(C)c1c(N)nc(-c2nn(Cc3ccccc3F)c3ncccc23)nc1N [Riociguat],–,–,–,no change,no significant beneficial effect,no significant beneficial effect,significantly reduced,only a slight reduction,not statistically significantly different,significantly reduced,no change,not,–
